“Also recorded” adds a separate entry of the source.
Legend:
peptide-pulsed C1R-A33 [1] = assay: In vitro CTL induction, IFN-gamma ELISPOT assay (HLA-A*3303); type: cell-based, human; details: CTLs induced with peptide-pulsed DCs from HLA-A*3303-positive volunteers; day 21; vs peptide-pulsed C1R-A33, compared with unpulsed control
Protocol: (§1) C1R (C1R-A33) that stably expresses HLA-A*3303 was used as a stimulator cell. A cDNA encoding the open-reading frame of HLA-A*3303 was amplified by PCR and cloned into an expression vector. C1R cells were transfected with the expression vector, and then selected using G418 (Invitrogen) for two weeks. The G418-selected cells were seeded into wells containing G418-added culture medium in a 96-well plate, and further cultured for 30 days. The exogenous HLA-A*3303 expression in C1R cells was verified by flow cytometric analysis.
(§2) Monocyte-derived dendritic cells (DCs) were used as the antigen-presenting cell to induce a cytotoxic T lymphocyte (CTL) response against peptides presented on human leukocyte antigens (HLAs). As described in the other sections, DCs were generated in vitro (Nakahara S et al., Cancer Res 2003, 63(14): 4112-8). Specifically, peripheral-blood mononuclear cells isolated from healthy volunteers (HLA-A*3303-positive) with the Ficoll-Paque plus solution (Pharmacia) were separated by attaching to plastic tissue culture dishes (Becton Dickinson) and concentrated as a monocyte fraction. The monocyte-concentrated population was cultured in the presence of 1000 IU/ml granulocyte macrophage colony-stimulating factor (R&D System) and 1000 IU/ml interleukin(IL)-4 (R&D System) in an AIM-V medium (Invitrogen) containing 2% heat-inactivated autologous serum (AS). After seven days of culturing, the cytokine-induced DCs were pulsed with 20 micro-g/ml each of the synthesized peptides in an AIM-V medium at 37 degrees C. for three hours in the presence of 3 micro-g/ml beta 2-microglobulin. The generated cells appeared to express on their cell surface DC-associated molecules such as CD80, CD83, CD86 and HLA class II (data not shown). Next, these peptide-pulsed DCs were inactivated by X-ray irradiation (20 Gy), and mixed in a 1:20 ratio with autologous CD8^+ T cells obtained by positive selection using the CD8 Positive Isolation Kit (Dynal). These culture products were seeded in a 48-well plate (Corning). Each well was made to contain 1.5×10^4 peptide-pulsed DCs, 3×10^5 CD8^+ T cells and 10 ng/ml IL-7 (R&D System) in 0.5 ml of the AIM-V/2% AS medium. Three days later, these culture products were added with a final concentration of 20 IU/ml IL-2 (CHIRON). On day 7 and day 14, T cells were further stimulated with peptide-pulsed autologous DCs. The DCs were prepared every time by the same method as above. On day 21, after the third peptide stimulation, CTLs were examined against the peptide-pulsed C1R-A33 cell by a human interferon (IFN)-gamma enzyme-linked immunospot (ELISPOT) assay (Tanaka H et al., Br J Cancer 2001, 84(1): 94-9; Umano Y et. al., Br J Cancer 2001, 84(8): 1052-7; Uchida N et al., Clin Cancer Res 2004, 10(24): 8577-86; Suda T et al., Cancer Sci 2006, 97(5): 411-9; Watanabe T et al., Cancer Sci 2005, 96(8): 498-506).
(§3) Specifically, peptide-pulsed C1R-A33 (1×10^4 cells/well) was prepared as the stimulator cell. The induced CTLs, i.e., CTL lines and CTL clones, were used as the responder cell. The IFN-gamma ELISPOT assay and IFN-gamma ELISA were performed according to the manufacturer's manual.

peptide-pulsed C1R-A33 [2] = assay: IFN-gamma ELISA of CTL lines and CTL clones (HLA-A*3303); type: cell-based, human; details: for IFN-gamma production of CTL clones, ELISA: CTL clones by limiting dilution, peptide-pulsed C1R-A33; for IFN-gamma production of CTL lines, ELISA: target cells pulsed with the peptide vs not pulsed, C1R-A33
Protocol: CTLs were propagated in culture using methods similar to those disclosed by Riddell et al. (Walter E A et al., N Engl J Med 1995, 333(16): 1038-44; Riddell S R et al., Nat Med 1996, 2(2): 216-23). The CTLs were co-cultured in a total of 25 ml AIM-V medium containing 5% AS (AIM-V/5% AS) and 40 ng/ml anti-CD3 antibody with two types of Mitomycin C-treated human B lymphoblastoid cell lines at 5×10^6 cells/flask. One day after beginning of the culturing, 120 IU/ml IL-2 was added to the culture. On days 5, 8 and 11, a fresh AIM-V/5% AS medium containing 30 IU/ml IL-2 was added to the culture (Tanaka H et al., Br J Cancer 2001, 84(1): 94-9; Umano Y et al., Br J Cancer 2001, 84(8): 1052-7; Uchida N et al., Clin Cancer Res 2004, 10(24): 8577-86; Suda T et al., Cancer Sci 2006, 97(5): 411-9; Watanabe T et al., Cancer Sci 2005, 96(8): 498-506).
Dilution of CTLs was carried out to make 0.3, 1 and 3 cells/well in 96 round-bottomed microtiter plates (Nalge Nunc International). The CTLs were co-cultured with two types of Mitomycin C-treated human B lymphoblastoid cell lines at 1×10^4 cells/well in a total of 150 micro-1/well AIM-V/5% AS medium with 30 ng/ml anti-CD3 antibody and 125 IU/ml IL-2. Ten days later, IL-2 was added to the medium at 50 micro-1/well to reach a final concentration of 125 IU/ml. On day 14, the CTL activity was tested, and the CTL clones were propagated using the same method as described above (Uchida N et al., Clin Cancer Res 2004, 10(24): 8577-86; Suda T et al., Cancer Sci 2006, 97(5): 411-9; Watanabe T et al., Cancer Sci 2005, 96(8): 498-506).
as §3

[3] = system: COS7 cells transfected with both KOC1 and HLA-A*3303; assay: Specific CTL activity against target cells expressing KOC1 and HLA-A*3303; type: cell-based, African green monkey; details: for specific CTL activity of CTL clones against target cells expressing KOC1 and HLA-A*3303: COS7 transfected with both full-length KOC1 and HLA-A*3303; for specific CTL activity of CTL clones against control cells: COS7 transfected with either full-length KOC1 or HLA-A*3303
Protocol: as §3
A cDNA encoding the open-reading frame of a target gene or HLA-A*3303 was amplified by PCR. The PCR-amplified product was cloned into an expression vector. Either or both of the target gene-expressing vector and the HLA-A*3303-expressing vector were transfected into […], which is a cell line negative for the target gene and HLA, using Lipofectamine 2000 (Invitrogen) following the manufacturer's recommended protocol. Two days after transfection, the transfected cells were harvested using versene (Invitrogen), and used as the target cell for CTL activity assay (5×10^4 cells/well).
The CTL lines and CTL clones established against KOC1-A33-9-485 (SEQ ID NO: 64) (a), KOC1-A33-9-286 (SEQ ID NO: 67) (b), and KOC1-A33-10-542 (SEQ ID NO: 77) (c) were investigated for their ability to recognize target cells expressing KOC1 and the HLA-A*3303 molecule. COS7 cells transfected with both full-length KOC1 and the HLA-A*3303 gene (a specific model of target cells expressing KOC1 and the HLA-A*3303 gene) were prepared as the target cell. COS7 cells transfected with either full-length KOC1 or HLA-A*3303 were prepared as the control.

peptide-pulsed C1R-A11 = assay: In vitro CTL induction, IFN-gamma ELISPOT assay (HLA-A*1101); type: cell-based, human; details: CTLs induced with peptide-pulsed DCs from HLA-A*1101-positive volunteers; day 21; vs peptide-pulsed C1R-A11, compared with unpulsed control; listed as KOC1-A11-9-258
Protocol: as §1, with “(C1R-A11)” for “(C1R-A33)”, “HLA-A*1101” for “HLA-A*3303”
as §2, with “volunteers (HLA-A*1101-positive)” for “volunteers (HLA-A*3303-positive)”, “were inactivated,” for “were inactivated”, “peptide-pulsed C1R-A11” for “peptide-pulsed C1R-A33 cell”, “Y et” for “Y et.”
Specifically, peptide-pulsed C1R-A11 (1×10^4 cells/well) was prepared as the stimulator cell. The induced CTLs, i.e., CTL lines and CTL clones, were used as the responder cell. The IFN-gamma ELISPOT assay and IFN-gamma ELISA were performed according to the manufacturer's manual.

**Q.** What does the source list for “NFVGRLIGK (a peptide derived from KOC1) [SEQ ID NO: 67]”?
**A.** peptide-specific CTL activity (IFN-gamma production), ELISPOT (peptide-pulsed C1R-A33 [1]): potent IFN-gamma production; IFN-gamma production of CTL clones, ELISA (peptide-pulsed C1R-A33 [2]; listed as KOC1-A33-9-286): Potent IFN-gamma production; IFN-gamma production of CTL lines, ELISA (peptide-pulsed C1R-A33 [2]): potent IFN-gamma production; specific CTL activity of CTL clones against target cells expressing KOC1 and HLA-A*3303 ([3]; listed as KOC1-A33-9-286): specific CTL activity; also recorded: potent CTL activities; specific CTL activity of CTL clones against control cells ([3]; listed as KOC1-A33-9-286): a significant specific CTL activity was not shown; also recorded: a significant specific CTL activity was not detected

**Q.** With “KSILEIMHK (a peptide derived from KOC1) [SEQ ID NO: 1]” as the sequence, how does the “peptide-specific CTL activity (IFN-gamma production), ELISPOT” value (peptide-pulsed C1R-A11) read?
**A.** The value was “no specific IFN-gamma production; also recorded: specific IFN-gamma production was not observed”.

**Q.** “EVKLEAHIR (a peptide derived from KOC1) [SEQ ID NO: 64]” was tested. Which “peptide-specific CTL activity (IFN-gamma production), ELISPOT” value (peptide-pulsed C1R-A33 [1]) did it give?
**A.** The value was “potent IFN-gamma production”.

**Q.** And the “IFN-gamma production of CTL clones, ELISA” value (peptide-pulsed C1R-A33 [2]; listed as KOC1-A33-9-485)?
**A.** The value was “Potent IFN-gamma production”.

**Q.** And the “IFN-gamma production of CTL lines, ELISA” value (peptide-pulsed C1R-A33 [2])?
**A.** Its value is “potent IFN-gamma production”.

**Q.** And the “specific CTL activity of CTL clones against target cells expressing KOC1 and HLA-A*3303” value ([3]; listed as KOC1-A33-9-485)?
**A.** The value was “specific CTL activity; also recorded: potent CTL activities”.

**Q.** And the “specific CTL activity of CTL clones against control cells” value ([3]; listed as KOC1-A33-9-485)?
**A.** The value was “a significant specific CTL activity was not shown; also recorded: a significant specific CTL activity was not detected”.

**Q.** Which results are given for “HFYACQVAQR (a peptide derived from KOC1) [SEQ ID NO: 77]”?
**A.** peptide-specific CTL activity (IFN-gamma production), ELISPOT (peptide-pulsed C1R-A33 [1]): potent IFN-gamma production; IFN-gamma production of CTL clones, ELISA (peptide-pulsed C1R-A33 [2]; listed as KOC1-A33-10-542): Potent IFN-gamma production; IFN-gamma production of CTL lines, ELISA (peptide-pulsed C1R-A33 [2]): potent IFN-gamma production; specific CTL activity of CTL clones against target cells expressing KOC1 and HLA-A*3303 ([3]; listed as KOC1-A33-10-542): specific CTL activity; also recorded: potent CTL activities; specific CTL activity of CTL clones against control cells ([3]; listed as KOC1-A33-10-542): a significant specific CTL activity was not shown; also recorded: a significant specific CTL activity was not detected

— patent publication US10576102B2, “KOC1-derived peptide and vaccine including same” (ONCOTHERAPY SCIENCE, INC., priority 2014, dated 2020)
